# Test results as given in patent US9738634B2, “Heterocyclic amide compound and herbicide” (SYNGENTA PARTICIPATIONS AG, priority 2013, dated 2017).
# Assays:
# Format in all cases: in vivo
# Conditions in all cases: treatment dosage 320 g/ha
# barnyard grass [1] = assay: Test Example 1: weedkilling efficacy, preemergent weed treatment in the submerged state; A: barnyard grass
# Summary of the method: (§1)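 Pre-emergence paddy test: weed seeds sown in submerged alluvial soil (4 cm water), 2.5-leaf rice transplanted, water-diluted emulsion applied to water surface at sowing at stated g/ha. Scored at 3 weeks, greenhouse 25–30 °C.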
# bulrush [2] = assay: Test Example 1: weedkilling efficacy, preemergent weed treatment in the submerged state; B: bulrush
# Summary of the method: as §1
# oval-leafed pondweed [3] = assay: Test Example 1: weedkilling efficacy, preemergent weed treatment in the submerged state; C: oval-leafed pondweed
# Summary of the method: as §1
# transplanted rice = assay: Test Example 1: preemergent weed treatment in the submerged state, effect on crop; a: transplanted rice
# Summary of the method: as §1
# barnyard grass [4] = assay: Test Example 2: weedkilling efficacy, growth period weed treatment in the submerged state; A: barnyard grass
# Summary of the method: (§2)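 Seedlings at 1-2 leaves in 4 cm-deep submerged alluvial soil received emulsion formulations on the water surface, dosed per hectare; effects were judged 3 weeks on.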
# bulrush [5] = assay: Test Example 2: weedkilling efficacy, growth period weed treatment in the submerged state; B: bulrush
# Summary of the method: as §2
# oval-leafed pondweed [6] = assay: Test Example 2: weedkilling efficacy, growth period weed treatment in the submerged state; C: oval-leafed pondweed
# Summary of the method: as §2
# crabgrass [7] = assay: Test Example 3: weedkilling efficacy through soil treatment; D: crabgrass
# Summary of the method: (§3)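 Crop and weed responses were judged three weeks after a uniform surface spray of the water-diluted emulsion at the given g/ha rate. Seeds sat beneath about 1.5 cm of sterilized diluvial soil, and boxes stood in a greenhouse at 25 to 30° C.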
# green foxtail [8] = assay: Test Example 3: weedkilling efficacy through soil treatment; E: green foxtail
# Summary of the method: as §3
# barnyard grass [9] = assay: Test Example 3: weedkilling efficacy through soil treatment; F: barnyard grass
# Summary of the method: as §3
# wild oat [10] = assay: Test Example 3: weedkilling efficacy through soil treatment; G: wild oat
# Summary of the method: as §3
# black-grass [11] = assay: Test Example 3: weedkilling efficacy through soil treatment; H: black-grass
# Summary of the method: as §3
# Italian ryegrass [12] = assay: Test Example 3: weedkilling efficacy through soil treatment; I: Italian ryegrass
# Summary of the method: as §3
# common wind-grass [13] = assay: Test Example 3: weedkilling efficacy through soil treatment; J: common wind-grass
# Summary of the method: as §3
# Indian mallow [14] = assay: Test Example 3: weedkilling efficacy through soil treatment; K: Indian mallow
# Summary of the method: as §3
# redroot pigweed [15] = assay: Test Example 3: weedkilling efficacy through soil treatment; L: redroot pigweed
# Summary of the method: as §3
# fig-leafed goosefoot [16] = assay: Test Example 3: weedkilling efficacy through soil treatment; M: fig-leafed goosefoot
# Summary of the method: as §3
# chickweed [17] = assay: Test Example 3: weedkilling efficacy through soil treatment; N: chickweed
# Summary of the method: as §3
# birds-eye speedwell [18] = assay: Test Example 3: weedkilling efficacy through soil treatment; p: birds-eye speedwell
# Summary of the method: as §3
# directly sown rice [19] = assay: Test Example 3: soil treatment, effect on crop; b: directly sown rice
# Summary of the method: as §3
# corn [20] = assay: Test Example 3: soil treatment, effect on crop; c: corn
# Summary of the method: as §3
# soybean [21] = assay: Test Example 3: soil treatment, effect on crop; d: soybean
# Summary of the method: as §3
# wheat [22] = assay: Test Example 3: soil treatment, effect on crop; e: wheat
# Summary of the method: as §3
# beet [23] = assay: Test Example 3: soil treatment, effect on crop; f: beet
# Summary of the method: as §3
# rapeseed [24] = assay: Test Example 3: soil treatment, effect on crop; g: rapeseed
# Summary of the method: as §3
# crabgrass [25] = assay: Test Example 4: weedkilling efficacy by foliar treatment; D: crabgrass
# Summary of the method: (§4)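 Seeds are spot-sown into sterilized diluvial soil and covered with about 1.5 cm of soil. After 14 days' greenhouse growth at 25 to 30° C, plants are sprayed on stems and leaves with diluted emulsion at the stated g/ha rate, then scored at 3 weeks.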
# green foxtail [26] = assay: Test Example 4: weedkilling efficacy by foliar treatment; E: green foxtail
# Summary of the method: as §4
# barnyard grass [27] = assay: Test Example 4: weedkilling efficacy by foliar treatment; F: barnyard grass
# Summary of the method: as §4
# wild oat [28] = assay: Test Example 4: weedkilling efficacy by foliar treatment; G: wild oat
# Summary of the method: as §4
# black-grass [29] = assay: Test Example 4: weedkilling efficacy by foliar treatment; H: black-grass
# Summary of the method: as §4
# Italian ryegrass [30] = assay: Test Example 4: weedkilling efficacy by foliar treatment; I: Italian ryegrass
# Summary of the method: as §4
# common wind-grass [31] = assay: Test Example 4: weedkilling efficacy by foliar treatment; J: common wind-grass
# Summary of the method: as §4
# Indian mallow [32] = assay: Test Example 4: weedkilling efficacy by foliar treatment; K: Indian mallow
# Summary of the method: as §4
# redroot pigweed [33] = assay: Test Example 4: weedkilling efficacy by foliar treatment; L: redroot pigweed
# Summary of the method: as §4
# fig-leafed goosefoot [34] = assay: Test Example 4: weedkilling efficacy by foliar treatment; M: fig-leafed goosefoot
# Summary of the method: as §4
# chickweed [35] = assay: Test Example 4: weedkilling efficacy by foliar treatment; N: chickweed
# Summary of the method: as §4
# catchweed = assay: Test Example 4: weedkilling efficacy by foliar treatment; O: catchweed
# Summary of the method: as §4
# birds-eye speedwell [36] = assay: Test Example 4: weedkilling efficacy by foliar treatment; p: birds-eye speedwell
# Summary of the method: as §4
# directly sown rice [37] = assay: Test Example 4: foliar treatment, effect on crop; b: directly sown rice
# Summary of the method: as §4
# corn [38] = assay: Test Example 4: foliar treatment, effect on crop; c: corn
# Summary of the method: as §4
# soybean [39] = assay: Test Example 4: foliar treatment, effect on crop; d: soybean
# Summary of the method: as §4
# wheat [40] = assay: Test Example 4: foliar treatment, effect on crop; e: wheat
# Summary of the method: as §4
# beet [41] = assay: Test Example 4: foliar treatment, effect on crop; f: beet
# Summary of the method: as §4
# rapeseed [42] = assay: Test Example 4: foliar treatment, effect on crop; g: rapeseed
# Summary of the method: as §4
structure (smiles),measurement,setting,value
CC1=C(c2ccccc2)C(=O)N(C(C)(C)C(=O)Nc2cc(C(F)(F)F)cc(F)n2)CO1 [B-2-40],A (barnyard grass) weedkilling efficacy grade,barnyard grass [1],"5 (weed kill ratio 90% or more, (practically complete withering))"
same,B (bulrush) weedkilling efficacy grade,bulrush [2],"5 (weed kill ratio 90% or more, (practically complete withering))"
same,C (oval-leafed pondweed) weedkilling efficacy grade,oval-leafed pondweed [3],"5 (weed kill ratio 90% or more, (practically complete withering))"
same,a (transplanted rice) effect on crop grade,transplanted rice,"3 (weed kill ratio 40% or more, less than 70%)"
same,A (barnyard grass) weedkilling efficacy grade,barnyard grass [4],"5 (weed kill ratio 90% or more, (practically complete withering))"
same,B (bulrush) weedkilling efficacy grade,bulrush [5],"5 (weed kill ratio 90% or more, (practically complete withering))"
same,C (oval-leafed pondweed) weedkilling efficacy grade,oval-leafed pondweed [6],"5 (weed kill ratio 90% or more, (practically complete withering))"
same,D (crabgrass) weedkilling efficacy grade,crabgrass [7],"5 (weed kill ratio 90% or more, (practically complete withering))"
same,E (green foxtail) weedkilling efficacy grade,green foxtail [8],"5 (weed kill ratio 90% or more, (practically complete withering))"
same,F (barnyard grass) weedkilling efficacy grade,barnyard grass [9],"5 (weed kill ratio 90% or more, (practically complete withering))"
same,G (wild oat) weedkilling efficacy grade,wild oat [10],"5 (weed kill ratio 90% or more, (practically complete withering))"
same,H (black-grass) weedkilling efficacy grade,black-grass [11],"5 (weed kill ratio 90% or more, (practically complete withering))"
same,I (Italian ryegrass) weedkilling efficacy grade,Italian ryegrass [12],"5 (weed kill ratio 90% or more, (practically complete withering))"
same,J (common wind-grass) weedkilling efficacy grade,common wind-grass [13],"5 (weed kill ratio 90% or more, (practically complete withering))"
same,K (Indian mallow) weedkilling efficacy grade,Indian mallow [14],"5 (weed kill ratio 90% or more, (practically complete withering))"
same,L (redroot pigweed) weedkilling efficacy grade,redroot pigweed [15],"4 (weed kill ratio 70% or more, less than 90%)"
same,M (fig-leafed goosefoot) weedkilling efficacy grade,fig-leafed goosefoot [16],"5 (weed kill ratio 90% or more, (practically complete withering))"
same,N (chickweed) weedkilling efficacy grade,chickweed [17],"4 (weed kill ratio 70% or more, less than 90%)"
same,P (birds-eye speedwell) weedkilling efficacy grade,birds-eye speedwell [18],"5 (weed kill ratio 90% or more, (practically complete withering))"
same,b (directly sown rice) effect on crop grade,directly sown rice [19],"5 (weed kill ratio 90% or more, (practically complete withering))"
same,c (corn) effect on crop grade,corn [20],0 (weed kill ratio 5% or less (practically no effect))
same,d (soybean) effect on crop grade,soybean [21],"2 (weed kill ratio 20% or more, less than 40%)"
same,e (wheat) effect on crop grade,wheat [22],0 (weed kill ratio 5% or less (practically no effect))
same,f (beet) effect on crop grade,beet [23],"3 (weed kill ratio 40% or more, less than 70%)"
same,g (rapeseed) effect on crop grade,rapeseed [24],"4 (weed kill ratio 70% or more, less than 90%)"
same,D (crabgrass) weedkilling efficacy grade,crabgrass [25],"5 (weed kill ratio 90% or more, (practically complete withering))"
same,E (green foxtail) weedkilling efficacy grade,green foxtail [26],"5 (weed kill ratio 90% or more, (practically complete withering))"
same,F (barnyard grass) weedkilling efficacy grade,barnyard grass [27],"5 (weed kill ratio 90% or more, (practically complete withering))"
same,G (wild oat) weedkilling efficacy grade,wild oat [28],"5 (weed kill ratio 90% or more, (practically complete withering))"
same,H (black-grass) weedkilling efficacy grade,black-grass [29],"5 (weed kill ratio 90% or more, (practically complete withering))"
same,I (Italian ryegrass) weedkilling efficacy grade,Italian ryegrass [30],"5 (weed kill ratio 90% or more, (practically complete withering))"
same,J (common wind-grass) weedkilling efficacy grade,common wind-grass [31],"5 (weed kill ratio 90% or more, (practically complete withering))"
same,K (Indian mallow) weedkilling efficacy grade,Indian mallow [32],"5 (weed kill ratio 90% or more, (practically complete withering))"
same,L (redroot pigweed) weedkilling efficacy grade,redroot pigweed [33],"5 (weed kill ratio 90% or more, (practically complete withering))"
same,M (fig-leafed goosefoot) weedkilling efficacy grade,fig-leafed goosefoot [34],"5 (weed kill ratio 90% or more, (practically complete withering))"
same,N (chickweed) weedkilling efficacy grade,chickweed [35],"4 (weed kill ratio 70% or more, less than 90%)"
same,O (catchweed) weedkilling efficacy grade,catchweed,"5 (weed kill ratio 90% or more, (practically complete withering))"
same,P (birds-eye speedwell) weedkilling efficacy grade,birds-eye speedwell [36],"4 (weed kill ratio 70% or more, less than 90%)"
same,b (directly sown rice) effect on crop grade,directly sown rice [37],"5 (weed kill ratio 90% or more, (practically complete withering))"
same,c (corn) effect on crop grade,corn [38],"5 (weed kill ratio 90% or more, (practically complete withering))"
same,d (soybean) effect on crop grade,soybean [39],"5 (weed kill ratio 90% or more, (practically complete withering))"
same,e (wheat) effect on crop grade,wheat [40],"1 (weed kill ratio 5% or more, less than 20%)"
same,f (beet) effect on crop grade,beet [41],"4 (weed kill ratio 70% or more, less than 90%)"
same,g (rapeseed) effect on crop grade,rapeseed [42],"4 (weed kill ratio 70% or more, less than 90%)"
